Tests used:
[1] = target: T1, MAP kinase-activated protein kinase 2 (Homo sapiens, UniProt P49137); settings: at 10 µM
[2] = target: Proto-oncogene tyrosine-protein kinase Src (Homo sapiens, UniProt P12931); test: Selectivity interaction (KinomeScan (DiscoverX)) EUB0000092b SRC; settings: at 10 µM
[3] = target: Dual specificity mitogen-activated protein kinase kinase 2 (Homo sapiens) (UniProt P36507); test: Selectivity interaction (KinomeScan (DiscoverX)) EUB0001550a MAP2K2; settings: at 1 µM
[4] = target: T2, Tyrosine-protein kinase Tec (Homo sapiens) (UniProt P42680); test: Selectivity interaction (KinomeScan (DiscoverX)) EUB0000666a TEC; settings: at 10 µM
T2 sequence (whole entry): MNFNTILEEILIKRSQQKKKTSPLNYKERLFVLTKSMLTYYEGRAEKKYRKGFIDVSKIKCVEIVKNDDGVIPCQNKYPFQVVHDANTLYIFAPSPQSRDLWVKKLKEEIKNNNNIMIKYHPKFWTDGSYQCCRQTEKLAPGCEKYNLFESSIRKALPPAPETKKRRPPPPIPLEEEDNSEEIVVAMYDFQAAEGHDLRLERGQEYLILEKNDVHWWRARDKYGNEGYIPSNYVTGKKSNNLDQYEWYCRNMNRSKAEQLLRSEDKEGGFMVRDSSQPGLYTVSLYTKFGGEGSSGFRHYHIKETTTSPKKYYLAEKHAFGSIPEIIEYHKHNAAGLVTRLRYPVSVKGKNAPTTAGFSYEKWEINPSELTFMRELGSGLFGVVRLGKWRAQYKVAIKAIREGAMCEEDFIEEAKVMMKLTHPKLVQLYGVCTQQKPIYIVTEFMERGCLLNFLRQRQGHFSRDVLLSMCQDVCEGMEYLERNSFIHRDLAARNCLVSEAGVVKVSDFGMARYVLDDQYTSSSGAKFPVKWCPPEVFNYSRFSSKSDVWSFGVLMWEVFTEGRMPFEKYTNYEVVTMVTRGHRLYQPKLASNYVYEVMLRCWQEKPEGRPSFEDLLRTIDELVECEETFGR

[5] = target: T3, Dual specificity mitogen-activated protein kinase kinase 5 (Homo sapiens) (UniProt Q13163); test: Selectivity interaction (KinomeScan (DiscoverX)) EUB0000695a MAP2K5; settings: at 100 nM
T3 sequence (whole entry): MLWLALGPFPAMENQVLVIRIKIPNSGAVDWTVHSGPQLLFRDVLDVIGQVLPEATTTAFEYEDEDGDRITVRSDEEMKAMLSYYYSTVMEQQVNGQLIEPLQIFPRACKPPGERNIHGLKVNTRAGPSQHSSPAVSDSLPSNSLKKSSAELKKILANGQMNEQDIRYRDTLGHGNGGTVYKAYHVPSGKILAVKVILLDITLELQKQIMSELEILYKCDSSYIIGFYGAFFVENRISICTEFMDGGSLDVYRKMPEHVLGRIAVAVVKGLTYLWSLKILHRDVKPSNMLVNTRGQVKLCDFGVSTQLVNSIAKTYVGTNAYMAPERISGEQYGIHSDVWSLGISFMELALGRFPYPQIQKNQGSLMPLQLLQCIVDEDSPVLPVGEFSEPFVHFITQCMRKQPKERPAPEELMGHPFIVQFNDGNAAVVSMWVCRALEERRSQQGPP

[6] = target: T1, MAP kinase-activated protein kinase 2; test: Selectivity interaction (KinomeScan (DiscoverX)) EUB0000695a MAPKAPK2; settings: at 100 nM
[7] = target: T4, Serine/threonine-protein kinase 4 (Homo sapiens) (UniProt Q13043); test: Selectivity interaction (KinomeScan (DiscoverX)) EUB0000695a STK4; settings: at 100 nM
T4 sequence (whole entry): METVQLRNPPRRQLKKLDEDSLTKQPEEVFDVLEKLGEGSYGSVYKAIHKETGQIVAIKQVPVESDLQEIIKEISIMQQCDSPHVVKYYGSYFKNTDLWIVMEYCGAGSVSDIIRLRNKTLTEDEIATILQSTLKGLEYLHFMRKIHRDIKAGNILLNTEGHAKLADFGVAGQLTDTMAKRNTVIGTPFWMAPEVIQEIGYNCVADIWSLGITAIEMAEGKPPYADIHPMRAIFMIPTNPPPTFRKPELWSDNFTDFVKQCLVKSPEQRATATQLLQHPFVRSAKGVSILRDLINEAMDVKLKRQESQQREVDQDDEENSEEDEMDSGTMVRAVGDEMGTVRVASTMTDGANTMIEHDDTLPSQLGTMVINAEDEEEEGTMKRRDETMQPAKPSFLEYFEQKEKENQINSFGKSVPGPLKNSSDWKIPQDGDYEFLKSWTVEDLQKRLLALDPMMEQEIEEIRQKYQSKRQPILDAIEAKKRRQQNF

[8] = target: Serine/threonine-protein kinase 16 (Homo sapiens, UniProt O75716); test: Selectivity interaction (KinomeScan (DiscoverX)) EUB0000045b STK16
[9] = target: T5, Serine/threonine-protein kinase D2 (Homo sapiens) (UniProt Q9BZL6); test: Selectivity interaction (KinomeScan (DiscoverX)) EUB0001619a PRKD2; settings: at 1 µM
T5 sequence (whole entry): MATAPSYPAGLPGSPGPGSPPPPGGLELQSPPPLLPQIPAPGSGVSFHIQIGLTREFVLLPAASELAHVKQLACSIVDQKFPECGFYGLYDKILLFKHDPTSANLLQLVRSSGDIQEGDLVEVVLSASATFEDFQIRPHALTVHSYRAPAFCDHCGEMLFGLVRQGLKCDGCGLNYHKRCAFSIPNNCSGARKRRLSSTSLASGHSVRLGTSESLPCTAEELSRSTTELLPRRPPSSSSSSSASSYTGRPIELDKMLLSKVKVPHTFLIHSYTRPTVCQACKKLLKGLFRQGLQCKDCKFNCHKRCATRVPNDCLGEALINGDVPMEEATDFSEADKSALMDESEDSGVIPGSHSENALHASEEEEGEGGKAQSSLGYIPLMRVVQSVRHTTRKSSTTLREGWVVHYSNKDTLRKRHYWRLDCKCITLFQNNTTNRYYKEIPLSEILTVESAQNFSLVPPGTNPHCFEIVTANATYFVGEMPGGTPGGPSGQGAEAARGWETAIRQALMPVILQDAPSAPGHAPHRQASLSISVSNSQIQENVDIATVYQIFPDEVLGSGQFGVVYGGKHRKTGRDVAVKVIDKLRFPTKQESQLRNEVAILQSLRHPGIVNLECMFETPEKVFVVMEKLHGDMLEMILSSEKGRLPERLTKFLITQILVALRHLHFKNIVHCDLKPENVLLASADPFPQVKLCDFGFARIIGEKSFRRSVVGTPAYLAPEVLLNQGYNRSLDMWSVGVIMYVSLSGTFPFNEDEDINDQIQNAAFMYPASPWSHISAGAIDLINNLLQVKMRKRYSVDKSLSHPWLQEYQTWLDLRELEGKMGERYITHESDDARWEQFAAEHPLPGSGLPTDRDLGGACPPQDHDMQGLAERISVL

T1 sequence (P49137 whole entry, looked up): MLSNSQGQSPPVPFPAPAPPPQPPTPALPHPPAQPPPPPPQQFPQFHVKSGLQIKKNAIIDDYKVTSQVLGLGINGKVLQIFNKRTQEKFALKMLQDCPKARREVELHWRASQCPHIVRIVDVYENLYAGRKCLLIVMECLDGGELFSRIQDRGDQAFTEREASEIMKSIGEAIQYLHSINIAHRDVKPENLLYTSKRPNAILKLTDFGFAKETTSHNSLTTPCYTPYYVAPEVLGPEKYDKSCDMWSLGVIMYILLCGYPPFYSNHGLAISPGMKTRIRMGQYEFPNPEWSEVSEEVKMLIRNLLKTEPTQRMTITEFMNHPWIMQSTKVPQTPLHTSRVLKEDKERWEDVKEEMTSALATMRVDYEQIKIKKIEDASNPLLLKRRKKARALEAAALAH
Chain of Serine/threonine-protein kinase 16 (O75716 whole entry): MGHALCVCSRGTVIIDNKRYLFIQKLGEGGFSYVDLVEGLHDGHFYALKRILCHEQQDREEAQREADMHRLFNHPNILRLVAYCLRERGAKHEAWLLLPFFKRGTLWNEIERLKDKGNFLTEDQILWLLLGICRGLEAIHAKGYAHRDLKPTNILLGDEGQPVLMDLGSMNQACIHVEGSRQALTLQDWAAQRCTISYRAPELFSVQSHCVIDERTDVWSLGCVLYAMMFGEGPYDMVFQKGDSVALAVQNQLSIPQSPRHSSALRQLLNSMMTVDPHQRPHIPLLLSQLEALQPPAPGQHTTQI
Chain of Proto-oncogene tyrosine-protein kinase Src (P12931 2-536 limits assumed): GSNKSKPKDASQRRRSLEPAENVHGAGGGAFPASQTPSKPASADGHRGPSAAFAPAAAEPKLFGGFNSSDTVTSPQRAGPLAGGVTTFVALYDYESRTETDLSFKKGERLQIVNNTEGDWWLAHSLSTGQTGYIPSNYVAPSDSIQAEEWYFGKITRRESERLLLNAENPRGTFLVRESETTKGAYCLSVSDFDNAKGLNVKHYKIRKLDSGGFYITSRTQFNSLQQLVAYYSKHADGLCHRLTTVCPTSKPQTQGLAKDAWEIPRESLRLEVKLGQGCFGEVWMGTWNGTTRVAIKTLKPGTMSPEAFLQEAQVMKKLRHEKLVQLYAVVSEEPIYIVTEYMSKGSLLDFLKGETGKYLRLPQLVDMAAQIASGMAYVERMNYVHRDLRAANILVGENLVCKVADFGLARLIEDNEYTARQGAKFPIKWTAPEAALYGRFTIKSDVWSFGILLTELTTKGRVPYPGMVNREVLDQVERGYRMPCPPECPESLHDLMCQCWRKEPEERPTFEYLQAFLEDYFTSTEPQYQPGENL
Chain of Dual specificity mitogen-activated protein kinase kinase 2 (Homo sapiens) (P36507 whole entry): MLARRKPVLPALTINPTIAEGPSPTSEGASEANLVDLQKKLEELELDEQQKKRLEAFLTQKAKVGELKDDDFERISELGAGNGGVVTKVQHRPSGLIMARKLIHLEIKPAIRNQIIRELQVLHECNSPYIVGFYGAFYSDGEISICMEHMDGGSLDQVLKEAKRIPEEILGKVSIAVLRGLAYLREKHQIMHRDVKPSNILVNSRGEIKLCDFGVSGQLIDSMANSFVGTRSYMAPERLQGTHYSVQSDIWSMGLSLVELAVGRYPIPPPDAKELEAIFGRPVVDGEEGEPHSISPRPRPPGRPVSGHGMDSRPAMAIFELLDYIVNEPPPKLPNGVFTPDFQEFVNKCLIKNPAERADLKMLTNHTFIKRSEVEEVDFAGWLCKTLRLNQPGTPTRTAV

Compound: CCN(CC)CCCCNc1ncc2cc(-c3cc(OC)cc(OC)c3)c(NC(=O)NC(C)(C)C)nc2n1
- % of control [1]: 100%

Compound: CCC(=O)N1CCN(c2ccc(-n3c(=O)ccc4cnc5ccc(-c6cnc7ccccc7c6)cc5c43)cc2C(F)(F)F)CC1
- % of control [2]: 95%

Compound: CN(C)CC#Cc1ccc2[nH]c3c(c2c1)-c1nc(N)ncc1CCC3
- % of control [3]: 9.6%

Compound: O=C(NOC[C@H](O)CO)c1ccc(F)c(F)c1Nc1ccc(I)cc1F
- % of control [4]: 100%

Compound: Cc1cc(F)c(C(=O)Nc2cccc(-c3nncn3C(C)C)n2)cc1-n1cnc(C2CC2)c1
- % of control [5]: 94%
- % of control [6]: 57%
- % of control [7]: 100%

Compound: C=CC(=O)Nc1cc(-n2c(=O)ccc3cnc4ccc(-c5ccc(NS(C)(=O)=O)cc5)cc4c32)ccc1C
- % of control ([8]; at 1 µM): 98%
- % of control ([8]; at 10 µM): 28%

Compound: N#Cc1cccc(-c2c[nH]c3ncnc(N4CCOCC4)c23)c1
- % of control [9]: 100%
